Laboratory results reported in patent US20210238139A1, “MODULATORS OF TRYPTOPHAN CATABOLISM” (E-Therapeutics PLC, priority 2018, published 2021).

Experiments:
SK-OV-3 cells = test: Effect of compounds on tryptophan catabolism in SK-OV-3 cell line (inhibition of kynurenine production, LC-MS/MS); format: cell-based; conditions: for IC50: Homo sapiens, SK-OV-3, 24 h, SK-OV-3 cell line, 24 h incubation, kynurenine in supernatant by LC-MS/MS, read-out: IC50 Ranges (ic50 values for inhibition of Kynurenine production)
Outline: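 Kynurenine in supernatants quantified by LC-MS/MS after 24 h compound exposure (37 °C; top 30 μM, eight 3-fold steps, duplicate) in DMEM F-12 containing 6 mg/mL L-tryptophan. Cells pre-plated overnight in McCoy's 5A with 10% FBS. Viability checked in parallel by ATP luminescence.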

IDO1 enzyme = target: T1, IDO1 enzyme (Homo sapiens, UniProt P14902); test: IDO1 enzyme inhibition assay (hIDO assay kit, NFK-green); conditions: IDO1 enzyme 25 nM, tryptophan 100 μM, top concentration 30 μM; read-out: IDO1 Biochemical assay IC50
T1 construct: purchased Netherlands Translational Research Center B.V. NTRC-hIDO-1K
Experimental: The effect of compounds on IDO1 enzymatic activity was assessed by use of a hIDO assay kit (Netherlands Translational Research Center B.V., Cat #NTRC-hIDO-1K). IDO1 enzyme and tryptophan substrate are diluted in assay buffer. Compounds are tested at 8 consecutive 3-fold dilutions starting from 30 μM. 267 nL of compound is added per well of a 384-well plate followed by addition of 10 μL of assay buffer. IDO1 enzyme is added at a final concentration of 25 nM and pre-incubated for 30 min at room temperature in the dark. Tryptophan substrate solution is then added at final concentration of 100 μM to all wells and the plate incubated for 60 min at RT in the dark. Finally NFK-green reagent is added at ⅕ of total reaction volume and incubated for 4 h at RT in the dark. After incubation fluorescence is measured at Ex405 nm-Em535 nm using EnVision plate reader.
(§1) IC50 values are determined using GraphPad Prism software 5.04 for Windows by plotting percent of inhibition against log 10 concentrations of compounds using a four-parametric sigmoidal curve with a variable slope.

TDO2 enzyme = target: T2, TDO2 enzyme (Homo sapiens, UniProt P48775); test: TDO2 enzyme inhibition assay (hTDO2 assay kit, NFK-green); conditions: TDO2 enzyme 50 nM, tryptophan 200 μM, top concentration 30 μM; read-out: TDO2 Biochemical assay IC50
T2 construct: purchased Netherlands Translational Research Center B.V. NTRC-hTDO-1K
Experimental: The effect of compounds on TDO2 enzymatic activity was assess by use of an hTDO2 assay kit (Netherlands Translational Research Center B.V., Cat #NTRC-hTDO-1K). TDO2 enzyme and tryptophan substrate are diluted in assay buffer. Compounds are tested at 8 consecutive 3-fold dilutions starting from 30 μM. 267 nL of compound is added per well of a 384-well plate followed by addition of 10 μL of assay buffer. TDO2 enzyme is added at a final concentration of 50 nM and pre-incubated for 60 min at room temperature in the dark. Tryptophan substrate solution is then added at final concentration of 200 μM to all wells and the plate incubated for 15 min at RT in the dark. Finally NFK-green reagent is added at ⅕ of total reaction volume and incubated for 4 h at RT in the dark. After incubation fluorescence is measured at Ex405 nm-Em535 nm using EnVision plate reader.
as §1

[1] = test system: monocyte-derived dendritic cells; test: Effect of compounds on tryptophan catabolism in monocyte-derived dendritic cells (kynurenine production); format: cell-based; conditions: Homo sapiens, Dendritic cell; dendritic cells triggered with LPS and IFNγ, 24 h with compound
Experimental: (§2) Peripheral blood mononuclear cells are isolated from buffy coats from healthy volunteers by Lymphoprep density gradient centrifugation, followed by lysis of residual erythrocytes with isotonic buffer solution of ammonium chloride. CD14+ cells are isolated by positive selection using MACS® technology and CD14 MicroBeads (Miltenyi Biotec) according to manufacturer's instructions. The isolated monocytes are differentiated into dendritic cells by incubation for 5 days in RPMI-1640 medium supplemented with 10% fetal bovine serum (FBS), 50 ng/mL GM-CSF and 35 ng/mL IL-4. After 5 days the DCs are seeded in 96-well plates in DMEM supplemented with 10% charcoal stripped FBS, GM-CSF and IL-4. The following day cells are triggered with LPS and IFNγ. After 24 h of incubation medium is replaced with DMEM F-12 medium supplemented with 6 mg/mL L-tryptophan and 10% charcoal stripped FBS. Compounds are added to the cells and incubated for 24 h at 37° C., 5% CO2, 95% humidity. Compounds are tested at 7 consecutive 4-fold dilutions starting from 30 μM in duplicate.
(§3) At the end of incubation concentration of kynurenine in cell supernatants is determined by LC-MS/MS. In parallel, cell viability is assessed by measurement of ATP by use of CellTiter Glo assay (Promega) according to manufacturer's protocol.
Inhibition of Kyn production is calculated using the following formula:
(1−(Kyn conc. cmpd.−Kyn conc. medium)/(Kyn conc. medium with cells−Kyn conc. medium))·100
IC50 values are determined using GraphPad Prism software 5.04 for Windows, by plotting percent of inhibition against log 10 concentrations of compounds using a four-parametric sigmoidal curve with a variable slope.

[2] = test system: monocyte-derived dendritic cells; test: Cell viability / cytotoxicity in monocyte-derived dendritic cells (ATP, CellTiter Glo); format: cell-based, human; conditions: 24 h, unit assumed
Experimental: as §2, §3
Cell viability results are analysed in Microsoft Excel and expressed as fold change over untreated control.

[3] = test system: IDO1 protein in SK-OV-3 cells; test: Effect of compounds on IDO1 expression in SK-OV-3 cell line (Western analysis, normalised to GAPDH); format: cell-based; conditions: 24 hours exposure
Experimental: SK-OV-3 cells are seeded in 24-well plates in McCoy's 5A medium supplemented with 10% FBS at density of 250000 cells per well and incubated overnight at 37° C., 5% CO2, 95% humidity. The following day growth medium is replaced with DMEM F-12 medium containing 6 mg/mL L-tryptophan. Compounds are added to the wells and the plate is incubated for 24 h at 37° C., 5% CO2, 95% humidity. At the end of incubation medium is removed, cells are washed and then lysed in RIPA buffer. Protein concentrations in the samples are determined using BCA method (Thermo Scientific) and adjusted to 0.5 mg/mL. Western analysis is performed on the Wes system (Protein Simple) using IDO1 (Cell Signalling; Cat #12006S) and GAPDH (Abcam, Cat #ab9485) antibodies. Expression of IDO1 is normalised to GAPDH.

T1 sequence (P14902 whole entry): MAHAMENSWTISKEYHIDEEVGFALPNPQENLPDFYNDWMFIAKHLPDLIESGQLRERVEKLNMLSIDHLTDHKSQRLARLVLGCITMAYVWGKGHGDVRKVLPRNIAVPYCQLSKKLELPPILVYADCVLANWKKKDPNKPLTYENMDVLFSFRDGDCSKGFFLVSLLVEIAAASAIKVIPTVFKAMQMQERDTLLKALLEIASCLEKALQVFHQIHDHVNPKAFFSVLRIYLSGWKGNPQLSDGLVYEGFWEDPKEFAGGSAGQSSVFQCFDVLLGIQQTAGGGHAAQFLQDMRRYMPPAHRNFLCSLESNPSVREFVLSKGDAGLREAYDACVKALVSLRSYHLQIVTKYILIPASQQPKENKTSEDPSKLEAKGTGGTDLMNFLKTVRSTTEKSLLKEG
T2 sequence (P48775 whole entry): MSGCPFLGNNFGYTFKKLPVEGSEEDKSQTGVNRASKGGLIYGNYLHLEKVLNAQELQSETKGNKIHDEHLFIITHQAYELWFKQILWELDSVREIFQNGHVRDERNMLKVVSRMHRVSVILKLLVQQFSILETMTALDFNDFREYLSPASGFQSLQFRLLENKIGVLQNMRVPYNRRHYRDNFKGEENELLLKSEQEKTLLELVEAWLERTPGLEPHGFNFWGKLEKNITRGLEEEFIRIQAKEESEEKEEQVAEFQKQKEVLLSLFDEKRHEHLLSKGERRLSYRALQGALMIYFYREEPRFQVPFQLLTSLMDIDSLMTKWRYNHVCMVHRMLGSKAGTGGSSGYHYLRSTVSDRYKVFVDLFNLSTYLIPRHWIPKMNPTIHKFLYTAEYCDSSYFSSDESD

IC50 (SK-OV-3 cells) [µM] | IC50 (IDO1 enzyme) [µM] | IC50 (TDO2 enzyme) [µM] | IC50 [1] [µM] | SMILES | Cell viability at 30 uM (% of untreated control) [2] [%] | inhibition of kynurenine production by SKOV-3 (FIG. 1b) (SK-OV-3 cells; SKOV-3 cells, 24 hours exposure) | reduction in IDO1 protein in SKOV-3 cells (FIG. 1a) [3]
< 0.1 | > 30 | > 30 | 0.026 | Cc1ccc(CN(C(=O)Nc2ccc(C#N)cc2)C2CCCC2)o1 [Compound 80, 3-(4-cyanophenyl)-1-cyclopentyl-1-[(5-methyl-2-furyl)methyl]urea] | 112 |  | 
0.1 to 0.5 |  |  | 0.3 | Cc1ccc(CN(C(=O)Nc2ccc(F)cc2)C2CCC2)o1 [Compound 82, 1-cyclobutyl-3-(4-fluorophenyl)-1-[(5-methyl-2-furyl)methyl]urea] | 85 |  | 
< 0.1 | > 30 | > 30 | 0.13 | Cc1ccc(CN(C(=O)Nc2ccc(Cl)cc2)C2CCC2)o1 [Compound 83, 3-(4-chlorophenyl)-1-cyclobutyl-1-[(5-methyl-2-furyl)methyl]urea] | 89 |  | 
< 0.1 |  |  | 0.18 | Cc1ccc(CN(C(=O)Nc2ccc(C#N)cc2)C2CCC2)o1 [Compound 84, 3-(4-cyanophenyl)-1-cyclobutyl-1-[(5-methyl-2-furyl)methyl]urea] | 108 |  | 
< 0.1 |  |  | 0.065 | N#Cc1ccc(NC(=O)N(Cc2cccc(C(F)(F)F)c2)C2CCCC2)cc1 [Compound 89, 3-(4-cyanophenyl)-1-cyclopentyl-1-[[3-(trifluoromethyl)phenyl]methyl]urea] | 81 |  | 
< 0.1 |  | > 30 | 0.066 | O=C(Nc1ccc(Cl)cc1)N(Cc1cccc(C(F)(F)F)c1)C1CCC1 [Compound 90, 3-(4-chlorophenyl)-1-cyclobutyl-1-[[3-(trifluoromethyl)-phenyl]methyl]urea] | 67 |  | 
< 0.1 |  |  | 0.036 | N#Cc1ccc(NC(=O)N(Cc2cccc(C(F)(F)F)c2)C2CCC2)cc1 [Compound 91, 3-(4-cyanophenyl)-1-cyclobutyl-1-[[3-(trifluoromethyl)phenyl]methyl]urea] | 71 |  | 
< 0.1 |  | > 30 |  | C#Cc1ccc(NC(=O)N(Cc2ccc(C)o2)C2CCCC2)cc1 [Compound 102, 1-cyclopentyl-3-(4-ethynylphenyl)-1-[(5-methyl-2-furyl)methyl]urea] |  | dose-dependent inhibition of kynurenine production | dose-dependent reduction in IDO1 protein
< 0.1 | > 30 | > 30 | 0.04 | Cc1ccc(CN(C(=O)Nc2ccc(Cl)cc2)C2CCCC2)o1 [Compound 137, 3-(4-chlorophenyl)-1-cyclopentyl-1-[(5-methyl-2-furyl)methyl]urea] | 88 |  | 
< 0.1 |  |  | 0.27 | O=C(Nc1ccc(F)c(F)c1)N(Cc1ccc(F)c(C(F)(F)F)c1)C1CCCC1 [Compound 139, 1-cyclopentyl-3-(3,4-difluorophenyl)-1-[[4-fluoro-3-(trifluoromethyl)phenyl]methyl]urea] | 77 |  | 
< 0.1 |  |  | 0.32 | O=C(Nc1ccc(F)c(F)c1)N(Cc1cccc(C(F)(F)F)c1)C1CCCC1 [Compound 140, 1-cyclopentyl-3-(3,4-difluorophenyl)-1-[[3(trifluoromethyl)phenyl]methyl]urea] | 92 |  | 
< 0.1 |  |  | 0.47 | O=C(Nc1ccc(F)c(F)c1)N(Cc1ccc(F)c(OC(F)(F)F)c1)C1CCCC1 [Compound 141, 1-cyclopentyl-3-(3,4-difluorophenyl)-1-[[4-fluoro-3 (trifluoromethoxy)phenyl]methyl]urea] | 90 |  | 
0.1 to 0.5 | > 30 | > 30 | 0.38 | Cc1ncc(CN(C(=O)Nc2ccc(Cl)cc2)C2CCCC2)o1 [Compound 144, 3-(4-chlorophenyl)-1-cyclopentyl-1-[(2-methyloxazol-5-yl)methyl]urea] | 109 |  | 
< 0.1 |  |  | 0.12 | N#Cc1cc(CN(C(=O)Nc2ccc(Cl)cc2)C2CCCC2)ccc1F [Compound 146, 3-(4-chlorophenyl)-1-[(3-cyano-4-fluoro-phenyl)methyl]-1-cyclopentyl-urea] | 103 |  | 
< 0.1 |  | > 30 | 0.07 | N#Cc1cccc(CN(C(=O)Nc2ccc(Cl)cc2)C2CCCC2)c1 [Compound 147, 3-(4-chlorophenyl)-1-[(3-cyanophenyl)methyl]-1-cyclopentyl-urea] | 122 |  | 
< 0.1 |  |  | 0.15 | O=C(Nc1ccc(Cl)cc1)N(Cc1ccnc(C(F)(F)F)c1)C1CCCC1 [Compound 148, 3-(4-chlorophenyl)-1-cyclopentyl-1-[[2-(trifluoromethyl)-4-pyridyl]methyl]urea] | 103 |  | 
